Like-named read-outs stand apart in the source and are kept apart here.
Tests used:
[1] = tested on: Normoglycaemic Rats; assay: Experiment D: effect on plasma glucose and plasma IRI levels in normoglycaemic rats; assay type: in vivo, Wistar rats; settings: for Blood glucose / Plasma IRI: i.v. injection at 0 min, equimolar doses (glucagon 1 mg/kg, glucagon(1-21) 0.77 mg/kg), mean, N = 10
Description: Glucagon (-1 mg/kg) and an equimolar dosis of glucagon(1-21), i.e. 0.77 mg/kg, were injected intravenously at the beginning time (time: 0 minutes) to normally fed male Wistar rats weighing 150 g (+/- 5 g). Blood samples were taken from the orbital plexus at the times -5, 2, 5, 10, 15, 30, and 60 minutes. Blood glucose was assayed according to the hexokinase method and plasma insulin was assayed by RIA. […] Contrary to glucagon, glucagon(1-21) had no effect on these parameters. Mean blood glucose values (N = 10) are stated in Table VI below, and mean plasma IRI values (N = 10) are stated in Table VII below.

[2] = tested on: pigs; assay: Experiment C2: oral glucose tolerance test in pigs; assay type: in vivo; settings: cross-over, glucose 5 g/kg perorally at 0 and 60 min, glucagon(1-21) 1 mg/kg/h i.v. 0-120 min
Description: The effect of glucagon(1-21) on plasma glucose levels was investigated during an oral glucose tolerance test in pigs. 4 pigs were dosed in a cross-over experiment with glucose (5 g/kg) perorally at 0 and 60 minutes + placebo (saline with HSA) or glucagon(1-21) (1 mg/kg/h) from 0 to 120 minutes intravenously. Blood samples were drawn from an ear vein at the times -5, 10, 20, 30, 45, 60, 75, 90, 105, and 120 minutes and plasma glucose was assayed by the hexokinase method. The plasma glucose values are stated in Table V below: […]

[3] = tested on: NMRI mice; assay: Experiment E: acute toxicity study; assay type: in vivo; settings: 10 mg intravenously as a bolus, about 500 mg/kg body weight
[4] = tested on: isolated perfused rat pancreas; assay: IRI (insulin) release from the isolated perfused rat pancreas
Text: Such a use should be especially safe as no hypoglycaemia will occur during treatment because of the lack of IRI releasing effect in the presence of hypoglycaemia and normoglycaemia.
Furthermore, it is stated therein that compounds of formula I show no or minor, negligible metabolic effects. […] Based thereupon it is surprising that compounds of formula I have an insulin releasing effect on animals primed with glucose corresponding to hyperglycaemia.

[5] = tested on: rats; assay: Experiment A: effect on IRI-release in glucose-infused rats in vivo (RIA on plasma); set-up: species or system Wistar strain; settings: anaesthetized rats, i.v. glucose 1.5 mg/min + glucagon(1-21) 100 µg/kg/h
Description: 10 male rats, Wistar strain, 150 g (+/- 5 g) were anaesthetized with Pentobarbital. Polyethylene catheters were inserted into the right carotid artery for blood sampling and the left jugular vein for infusions. The rats were divided into two groups with 5 animals in each group. One group was infused with glucose (1.5 mg/min) from 0 to 60 minutes (placebo) and one group was infused with glucose (1.5 mg/min) + glucagon(1-21) (100 µg/kg/h) from […]. Blood was sampled into glasses on ice containing heparin (250 IU/ml) and aprotinin (600 KIU/ml) at the times 0, 1, 10, 20, 30, 40, 50, and 60 minutes. Insulin was determined by radio- immuno assay (RIA) on plasma.

[6] = tested on: rat free fat cells; assay: Lipolytic effect on rat free fat cells in vitro; assay type: cell-based; settings: compared with glucagon
[7] = tested on: rats; assay: Metabolic effects after administration to normally fasted and fed rats in vivo
[8] = tested on: rats; assay: Experiment B1: effect on blood glucose in rats in vivo, intravenous glucose infusion; set-up: species or system Wistar rats; settings: for Blood glucose: rats, i.v. glucose 2 mg/min 0-30 min, then infusion of 1 mg glucagon(1-21) 30-60 min
Description: Blood samples were drawn from the carotid artery at the times 0, 2, 5, 10, 20, 25, 30, 40, 50, and 60 minutes and blood glucose values were determined by the hexokinase method on an autoanalyzer. The blood glucose values are stated in Table II below.

[9] = tested on: isolated perfused rat pancreas; settings: buffer glucose concentration 1.0 mg/ml corresponding to normoglycaemia or below; statement of Danish patent application No. 2885/81; cited from earlier work
[10] = tested on: rats; assay: Experiment B2: oral glucose tolerance test in rats; assay type: in vivo, Wistar rats; settings: glucose 5 g/kg perorally at 0 and 60 min, glucagon(1-21) 1 mg/kg at 0, 30, 60, 90 min
Description: The effect of glucagon(1-21) was investigated in rats during an oral glucose tolerance test. 20 male Wistar rats were divided into 2 groups of 10 rats-and dosed as follows: Both groups were dosed with glucose (5 g/kg, perorally) at 0 and 60 minutes. The placebo group was dosed with 1 ml of 0.9% saline with 0.1% HSA intraperitoneally at the times 0, 30, 60, and 90 minutes. The other group was dosed with glucagon(1-21) (1 mg/kg) in 0.9% saline with HSA . at the times 0, 30, 60, and 90 minutes. Blood samples were drawn from the tails at the times -5, 0, 15, 30, 45, 60, 90, and 120 minutes for blood glucose determination. The blood glucose values are stated in Table III below.

[11] = normally fed rats, i.v., glucagon 1 mg/kg, glucagon(1-21) 0.77 mg/kg

glucagon-(1-21)-heneicosapeptide (HSQGTFTSDYSKYLDSRRAQD; Glucagon; UniProt P01275 53-73, looked up, fragment) [glucagon(1-21)]
hyperglycaemia ([1]; in vivo in normally fed rats): does not cause hyperglycaemia
insulin release ([1]; in vivo in normally fed rats): does not cause hyperglycaemia or release insulin
IRI release and plasma glucose levels ([1]; infused to rats and pigs with plasma glucose levels below 1.2 mg/ml): neither release IRI nor influence the plasma glucose levels
Blood glucose ([1]; normally fed rats, time 2 min): 1.1 mg/mL
Plasma IRI ([1]; normally fed rats, time 2 min): 30 µU/ml
Blood glucose ([1]; normally fed rats, time 5 min): 1.1 mg/mL
Plasma IRI ([1]; normally fed rats, time 5 min): 33 µU/ml
Blood glucose ([1]; normally fed rats, time 10 min): 1.2 mg/mL
Plasma IRI ([1]; normally fed rats, time 10 min): 35 µU/ml
Blood glucose ([1]; normally fed rats, time 15 min): 1.3 mg/mL
Plasma IRI ([1]; normally fed rats, time 15 min): 43 µU/ml
Blood glucose ([1]; normally fed rats, time 30 min): 1.3 mg/mL
Plasma IRI ([1]; normally fed rats, time 30 min): 38 µU/ml
Blood glucose ([1]; normally fed rats, time 60 min): 1.3 mg/mL
Plasma IRI ([1]; normally fed rats, time 60 min): 30 µU/ml
Blood glucose ([1]; normally fed rats, time -5 min): 1.0 mg/mL
Plasma IRI ([1]; normally fed rats, time -5 min): 32 µU/ml
effect on blood glucose [1, 11]: no effect
effect on plasma IRI [1, 11]: no effect
Plasma glucose ([2]; time 10 min): 1.0 mg/mL
Plasma glucose ([2]; time 20 min): 1.4 mg/mL
Plasma glucose ([2]; time 30 min): 1.7 mg/mL
Plasma glucose ([2]; time 45 min): 1.8 mg/mL
Plasma glucose ([2]; time 60 min): 1.9 mg/mL
Plasma glucose ([2]; time 75 min): 1.8 mg/mL
Plasma glucose ([2]; time 90 min): 1.7 mg/mL
Plasma glucose ([2]; time 105 min): 1.7 mg/mL
Plasma glucose ([2]; time 120 min): 2.1 mg/mL
Plasma glucose ([2]; time -5 min): 0.8 mg/mL
adverse effects [3]: no adverse effects
deaths [3]: No deaths occurred
insulin releasing effect ([4]; at hyperglycaemia): have this effect
insulin release ([4]; buffer glucose concentration 0.6 mg/ml corresponding to hypoglycaemia, infused to the same concentration as glucagon): no such effect
IRI (immunoreactive insulin) releasing effect, as share of glucagon's ([4]; buffer glucose concentration 1.5 mg/ml corresponding to mild hyperglycaemia): about 60%
IRI (immunoreactive insulin) releasing effect, as share of glucagon's ([4]; buffer glucose concentration 2.0 mg/ml corresponding to hyperglycaemia): about 85%
IRI ([5]; time 0 min): 18 µU/ml
IRI ([5]; time 1 min): 43 µU/ml
IRI ([5]; time 10 min): 48 µU/ml
IRI ([5]; time 20 min): 62 µU/ml
IRI ([5]; time 30 min): 56 µU/ml
IRI ([5]; time 40 min): 56 µU/ml
IRI ([5]; time 50 min): 60 µU/ml
IRI ([5]; time 60 min): 55 µU/ml
lipolytic effect [6]: negligible
metabolic effects [7]: No metabolic effects have been found
glucose tolerance ([8]; glucose primed rats, infused intravenously): improves the glucose tolerance
Blood glucose ([8]; time 0 min): 1.0 mg/mL
Blood glucose ([8]; time 2 min): 1.2 mg/mL
Blood glucose ([8]; time 5 min): 1.4 mg/mL
Blood glucose ([8]; time 10 min): 1.5 mg/mL
Blood glucose ([8]; time 20 min): 1.7 mg/mL
Blood glucose ([8]; time 25 min): 1.9 mg/mL
Blood glucose ([8]; time 30 min): 1.9 mg/mL
Blood glucose ([8]; time 40 min): 1.3 mg/mL
Blood glucose ([8]; time 50 min): 1.0 mg/mL
Blood glucose ([8]; time 60 min): 0.8 mg/mL
insulin release [9]: does not release insulin
Blood glucose ([10]; time 0 min): 0.96 mg/mL
Blood glucose ([10]; time 15 min): 1.32 mg/mL
Blood glucose ([10]; time 30 min): 1.35 mg/mL
Blood glucose ([10]; time 45 min): 1.23 mg/mL
Blood glucose ([10]; time 60 min): 1.36 mg/mL
Blood glucose ([10]; time 90 min): 1.37 mg/mL
Blood glucose ([10]; time 120 min): 1.37 mg/mL
Blood glucose ([10]; time -5 min): 0.89 mg/mL
